Experimental data taken from publication PMC9828418 (Angewandte Chemie (International Ed. in English), 2022).
Where two headings read alike, the source gives them in different places.

Assays:
[1] = Protonation constants of Bi^III complexes by pH-potentiometry; type: physicochemical; conditions: 0.15 M NaClO4, 25 °C
[2] = type: physicochemical; conditions: 0.15 M NaClO4, 25 °C
[3] = 0.6 M NaClO4, 25 °C; cited from earlier work

Structure (SMILES)	logK Bi(HL) (protonation constant of complex) [1]	logK BiL (stability constant) [2]	logK BiL (stability constant) ([2]; listed as A)	logK BiL (stability constant) ([2]; listed as B)	logK BiL (stability constant) [3]
CC1(N(CC(=O)[O-])CC(=O)[O-])CN(CC(=O)[O-])CCN(CC(=O)[O-])C1.[Bi+3] [[Bi(AAZTA)]^−]	1.63(3)	26.45	26.45(6)		
O=C([O-])CCCCC1(N(CC(=O)[O-])CC(=O)[O-])CN(CC(=O)[O-])CCN(CC(=O)[O-])C1.[Bi+3] [[Bi(AAZTA‐C4‐COO^−)]^2−]	4.74(4)	28.75		28.75(8)	
O=C([O-])CN(CCN(CC(=O)[O-])CC(=O)[O-])CCN(CC(=O)[O-])CC(=O)[O-].[Bi+3] [[Bi(DTPA)]^2−]					29.29
